Measurements taken from article PMC8858684 (FEBS letters, 2021).

Biological target: CTX-M-14 β-lactamase (Escherichia coli, UniProt Q9L5C7)
Test: hydrolysis kinetics
Type: biochemical
Conditions: read-out: Cefotaxime / Km; purified enzyme

With `CO/N=C(\C(=O)N[C@@H]1C(=O)N2C(C(=O)O)=C(COC(C)=O)CS[C@H]12)c1csc(N)n1` [cefotaxime] as the molecule, how does the Km read?
Its Km is 83.8 ± 2.3 µM.
